Reference: patent US20140163082A1, “PYRAZOLYL COMPOUNDS FOR USE IN REVERSING REACTIVE GLIOSIS” (priority 2011, published 2014)

Assays:
[1] = system: endothelial tip cells; assay: Filopodia number and length on endothelial tip cells, OIR mouse model; assay type: in vivo, C57BL/6J mice; conditions: OIR mice injected with YC-1 [25-100 μl], vs DMSO-treated retinas
Experimental: FIG. 4 the Influence of YC-1 on filopodia number and length. […] Image of tip cells along the leading edge of vascularization from; [A] Non-treated ischemic retinas; [B] DMSO-treated retinas; [C, D, E, and F] represent retinas from animals that were injected with YC-1 [25-100 μl]. Filopodia lengths and number/tip cell were not influenced by DMSO treatment. […] [n=5 per group].
A. Filopodia from DMSO-treated retinas had approximately similar lengths as the nontreated ischemic retinas. […] [ANOVA, ***P<0.001; **P<0.01 between YC-1 and DMSO]. There were 24 tip cells/retina that were averaged. [n=5 per group].
B. DMSO has no influence on the number of filopodia/tip cell. […] [ANOVA, ***P<0.001; **P<0.01 between YC-1 and DMSO]. There were 24 tip cells/retina that were averaged. [n=5 per group].
Retinal NV was induced in newborn mice as described previously. Briefly, P7 mice were exposed with their nursing mother, for 5 days [between P7 and P12] to hyperoxic conditions, by incubating them in an airtight chamber [PROOX 110 chamber O2 controller; Biospherix Ltd., Redfield, N.Y.] ventilated by a mixture of O2 and air to a final oxygen fraction of 75±2%. These incubation conditions induced vaso-obliteration and subsequent cessation of vascular development in the capillary beds of the central retina. […]

[2] = system: ischemic retinas; assay: Real time RT-PCR analysis, in vivo (OIR retinas); parameters: species or system C57BL/6J mice; conditions: OIR mice
Description: mRNA levels for HIF-1, VEGF, PDGF-B, GFAP and iNOS were quantified by Real time RTPCR. We used the primers summarized in [FIG. 6C] for RT-PCR. Gene-specific molecular beacons and primers were designed to encompass the genes of interest, with beacon's annealing site to overlap with the exon-exon junctions for additional specificity [Beacon Designer 6.0, Premier Biosoft International, Palo Alto, Calif., USA]. Threshold cycle [Ct] values for the different samples were utilized for the calculation of gene expression fold change using the formula 2 to the minus power of delta delta ct. Fold changes in the HIF-1, VEGF, PDGF-B, GFAP and iNOS gene relative to the β-actin endogenous control gene were determined by the following equation: fold change=2−Δ[ΔC T], where change in threshold cycle [ΔCT]=CT [gene of interest]−CT [β-actin] and Δ [ΔCT]=ΔCT [treated]−ΔCT [untreated].
Retinal NV was induced in newborn mice as described previously. Briefly, P7 mice were exposed with their nursing mother, for 5 days [between P7 and P12] to hyperoxic conditions, by incubating them in an airtight chamber [PROOX 110 chamber O2 controller; Biospherix Ltd., Redfield, N.Y.] ventilated by a mixture of O2 and air to a final oxygen fraction of 75±2%. These incubation conditions induced vaso-obliteration and subsequent cessation of vascular development in the capillary beds of the central retina. At P12, the mice were allowed to recover in normal room air conditions and maintained for another 5 days [till P17], the day in which peak disease occurs. A condition of relative hypoxia resulted between P12 and P17, and extensive retinal NV developed in 100% of the mice. Age-matched animals with the hyperoxia-exposed groups were maintained identically, except they were exposed to room air […], 79% N2] for the entire duration of the experiment. All animals were examined and sacrificed on the same days.
A group of hyperoxia-exposed animals [n=15] were injected intravitreally [into both eyes] at P12 and P15 with 3 μl of YC-1 [100 μM] [drug-treated group]. Another group of hyperoxiaexposed mice [n=15] were injected intravitreally [into both eyes] at P12 and P15 with 3 μl of DMSO [0.2% [v/v]] [mock-treated group]. Non-treated mice grown under ambient conditions, non-treated hyperoxia-exposed mice, DMSO-treated hyperoxia-exposed mice and YC-1-treated hyperoxia-exposed mice, were all examined at different critical time points for qualitative assessment of the retinal vasculature by fluorescein angiography.

[3] = system: rMC-1 cells; assay: Real time RT-PCR analysis, in vitro, rMC-1; assay type: cell-based
Experimental: A transformed Müller cell line [rMC-1] were grown in cell cultures in DMEM supplemented with 15% FBS, as well as with a fungicide mixture and 0.5% gentamicin in a humidified atmosphere of 5% CO2/95% air. Medium was changed every 2-3 days, and cells were grown to confluence in a 150-mm dish. Cells were split into 60-mm dishes and were used in the experiments when confluent. […] cells are immortalized rat retinal neurosensory/neuoroglial progenitor cells, by transfection with Adenovirus 12S E1A into the neonatal retinal tissue. […] cells express genes characteristic of neurons, as well as functional neuronal properties. […] cells were cultured in DMEM/F12 medium in a 1:1 mixture, supplemented with 5% FBS, 1.5 mM L-glutamine, 7.5 mM sodium pyruvate, 0.1 mM nonessential amino acids, 1×MEM, 0.37% sodium bicarbonate and 10 μg/ml gentamicin. Cells were incubated at 37° C. in the presence of 5% CO2. Human retinal microvascular endothelial cells [[…]][40,000 cells/well] were seeded in a 96-well plate and allowed to adhere overnight and incubated at 37° C. in normoxia. Cells were then cultured in 150 μl of CS-C medium supplemented with 10% FBS and in the presence of 1-100 μM YC-1 or DMSO [0.2%]. Cells were placed in airtight chambers [BioSpherix, Redfield, N.Y.] and the O2 tension was maintained at 1.2% by using Pro-Ox Model 110 O2 regulator [BioSpherix, Redfield, N.Y.]. The chamber was purged with a gas mixture of 5.32% CO2, and 93.48% N2. […] We used the primers summarized in [FIG. 6C] for RT-PCR. Gene-specific molecular beacons and primers were designed to encompass the genes of interest, with beacon's annealing site to overlap with the exon-exon junctions for additional specificity [Beacon Designer 6.0, Premier Biosoft International, Palo Alto, Calif., USA]. Threshold cycle [Ct] values for the different samples were utilized for the calculation of gene expression fold change using the formula 2 to the minus power of delta delta ct. Fold changes in the HIF-1, VEGF, PDGF-B, GFAP and iNOS gene relative to the β-actin endogenous control gene were determined by the following equation: fold change=2-Δ[ΔC T], where change in threshold cycle [ΔCT]=CT [gene of interest]-CT [β-actin] and Δ [ΔCT]=ΔCT [treated]-ΔCT [untreated].

[4] = system: macrophages; conditions: macrophages stimulated by lipoteichoic acid in vitro, ref [31]; cited from earlier work
[5] = 100 μM YC-1, vs DMSO-treated retinas
[6] = rMC-1, hypoxia 48 hours, YC-1 25-100 μM, vs DMSO-treated hypoxic cells

With `OCc1ccc(-c2nn(Cc3ccccc3)c3ccccc23)o1` [YC-1, 3-(5′-hydroxymethyl-2′-furyl)-1-benzylindazole] the “number of filopodia on endothelial tip cells” value [1] was “significantly and dose-dependently reduced”, the “total length of filopodia on endothelial tip cells” value [1] was “significantly and dose-dependently reduced” and the “PDGF-B message (mRNA) level in retina” value [2, 5] was “significantly attenuated”. The “VEGF message (mRNA) level in retina” value [2, 5] was “significantly attenuated”, the “iNOS message (mRNA) level in retina” value [2, 5] was “significantly attenuated” and the “HIF-1α message (mRNA) level in retinal tissue” value ([2]; YC-1) was “did not have any influence”. The “GFAP message (mRNA) level in retina” value ([2]; YC-1 dual injection, vs DMSO, normalized to β-actin) was “significantly attenuated”, the “PDGF-B mRNA level” value [3, 6] was “significant dose-dependent attenuations” and the “VEGF mRNA level” value [3, 6] was “significant dose-dependent attenuations”. The “iNOS mRNA level” value [3, 6] was “significant dose-dependent attenuations”, the “GFAP mRNA level” value ([3]; rMC-1, hypoxia, YC-1 25-100 μM, vs DMSO-treated hypoxic cells, normalized to β-actin) was “significant dose-dependent attenuations” and the HIF-1α message level ([3]; rMC-1, pre- vs post-YC-1 treatment) was “no differences”. The “expression of iNOS” value [4] was “potent activity at abrogating the expression of iNOS”.
